Reference: publication PMC10905675, “INX-315, a Selective CDK2 Inhibitor, Induces Cell Cycle Arrest and Senescence in Solid Tumors” (Cancer Discovery, 2023)

How the values were obtained:
Assay in all cases: SelectScreen Adapta
Format in all cases: biochemical
Details in all cases: INX-0315 at 100nM
[1] = target: T1, DAPK1 (Homo sapiens, UniProt P53355)
T1 construct: purchased Thermo Fisher Scientific SelectScreen (plus Nanosyn / Reaction Biology for CDK/cyclin lines)
Description: (§1) INX-315 was first evaluated in the SelectScreen Biochemical Kinase Profiling at Thermo Fisher Scientific (Madison, WI). The primary screen consisted of INX-315 dosed at a single concentration of 100 nmol/L in 1% DMSO across each platform within the SelectScreen array of assays, LanthaScreen Eu Kinase Binding Assay; AdaptaScreen; and Z'LyteScreen using preestablished conditions at Thermo Fisher Scientific as shown in Supplementary Table S2. […] The follow-up screen consisted of 10-point dose–response curves for INX-315 from 1 µmol/L to 0.0495 nmol/L.

[2] = target: T2, PIP4K2A (Homo sapiens, UniProt P48426)
T2 construct: purchased Thermo Fisher Scientific SelectScreen (plus Nanosyn / Reaction Biology for CDK/cyclin lines)
Description: as §1

[3] = target: T3, PIK3CA/PIK3R1 (p110 alpha/p85 alpha) (Homo sapiens, UniProt P42336)
T3 construct: purchased Thermo Fisher Scientific SelectScreen (plus Nanosyn / Reaction Biology for CDK/cyclin lines)
Description: as §1

[4] = target: T4, LRRK2 G2019S FL (Homo sapiens, UniProt Q5S007, G2019S)
T4 construct: purchased Thermo Fisher Scientific SelectScreen (plus Nanosyn / Reaction Biology for CDK/cyclin lines)
Description: as §1

[5] = target: T5, PIK3C3 (hVPS34) (Homo sapiens, UniProt Q8NEB9)
T5 construct: purchased Thermo Fisher Scientific SelectScreen (plus Nanosyn / Reaction Biology for CDK/cyclin lines)
T5 sequence (Q8NEB9 whole entry): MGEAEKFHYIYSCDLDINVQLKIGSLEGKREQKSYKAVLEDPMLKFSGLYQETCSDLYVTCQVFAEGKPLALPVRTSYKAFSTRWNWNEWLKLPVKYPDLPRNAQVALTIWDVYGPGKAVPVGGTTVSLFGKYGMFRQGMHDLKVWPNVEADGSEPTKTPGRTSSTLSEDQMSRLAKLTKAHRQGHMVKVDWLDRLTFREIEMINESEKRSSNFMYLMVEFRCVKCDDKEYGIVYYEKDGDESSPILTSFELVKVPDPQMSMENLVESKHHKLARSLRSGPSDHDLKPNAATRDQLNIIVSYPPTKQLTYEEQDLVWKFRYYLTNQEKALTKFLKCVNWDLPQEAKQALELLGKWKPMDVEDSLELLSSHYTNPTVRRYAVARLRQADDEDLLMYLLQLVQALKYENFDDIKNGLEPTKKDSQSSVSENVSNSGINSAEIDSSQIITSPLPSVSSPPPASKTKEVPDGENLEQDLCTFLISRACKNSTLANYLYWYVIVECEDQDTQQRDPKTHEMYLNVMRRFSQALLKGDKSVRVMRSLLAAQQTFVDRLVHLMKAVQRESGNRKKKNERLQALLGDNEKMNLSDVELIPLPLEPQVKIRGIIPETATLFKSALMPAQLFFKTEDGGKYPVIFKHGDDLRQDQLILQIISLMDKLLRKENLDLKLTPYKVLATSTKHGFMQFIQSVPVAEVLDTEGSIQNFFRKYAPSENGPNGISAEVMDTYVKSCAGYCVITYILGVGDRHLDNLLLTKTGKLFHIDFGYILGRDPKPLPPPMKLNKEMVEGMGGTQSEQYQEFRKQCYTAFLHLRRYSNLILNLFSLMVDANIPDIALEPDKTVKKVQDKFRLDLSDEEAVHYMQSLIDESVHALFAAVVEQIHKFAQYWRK
Description: as §1

[6] = target: T6, PIK3C2A (PI3K-C2 alpha) (Homo sapiens, UniProt O00443)
T6 construct: purchased Thermo Fisher Scientific SelectScreen (plus Nanosyn / Reaction Biology for CDK/cyclin lines)
T6 sequence (O00443 whole entry): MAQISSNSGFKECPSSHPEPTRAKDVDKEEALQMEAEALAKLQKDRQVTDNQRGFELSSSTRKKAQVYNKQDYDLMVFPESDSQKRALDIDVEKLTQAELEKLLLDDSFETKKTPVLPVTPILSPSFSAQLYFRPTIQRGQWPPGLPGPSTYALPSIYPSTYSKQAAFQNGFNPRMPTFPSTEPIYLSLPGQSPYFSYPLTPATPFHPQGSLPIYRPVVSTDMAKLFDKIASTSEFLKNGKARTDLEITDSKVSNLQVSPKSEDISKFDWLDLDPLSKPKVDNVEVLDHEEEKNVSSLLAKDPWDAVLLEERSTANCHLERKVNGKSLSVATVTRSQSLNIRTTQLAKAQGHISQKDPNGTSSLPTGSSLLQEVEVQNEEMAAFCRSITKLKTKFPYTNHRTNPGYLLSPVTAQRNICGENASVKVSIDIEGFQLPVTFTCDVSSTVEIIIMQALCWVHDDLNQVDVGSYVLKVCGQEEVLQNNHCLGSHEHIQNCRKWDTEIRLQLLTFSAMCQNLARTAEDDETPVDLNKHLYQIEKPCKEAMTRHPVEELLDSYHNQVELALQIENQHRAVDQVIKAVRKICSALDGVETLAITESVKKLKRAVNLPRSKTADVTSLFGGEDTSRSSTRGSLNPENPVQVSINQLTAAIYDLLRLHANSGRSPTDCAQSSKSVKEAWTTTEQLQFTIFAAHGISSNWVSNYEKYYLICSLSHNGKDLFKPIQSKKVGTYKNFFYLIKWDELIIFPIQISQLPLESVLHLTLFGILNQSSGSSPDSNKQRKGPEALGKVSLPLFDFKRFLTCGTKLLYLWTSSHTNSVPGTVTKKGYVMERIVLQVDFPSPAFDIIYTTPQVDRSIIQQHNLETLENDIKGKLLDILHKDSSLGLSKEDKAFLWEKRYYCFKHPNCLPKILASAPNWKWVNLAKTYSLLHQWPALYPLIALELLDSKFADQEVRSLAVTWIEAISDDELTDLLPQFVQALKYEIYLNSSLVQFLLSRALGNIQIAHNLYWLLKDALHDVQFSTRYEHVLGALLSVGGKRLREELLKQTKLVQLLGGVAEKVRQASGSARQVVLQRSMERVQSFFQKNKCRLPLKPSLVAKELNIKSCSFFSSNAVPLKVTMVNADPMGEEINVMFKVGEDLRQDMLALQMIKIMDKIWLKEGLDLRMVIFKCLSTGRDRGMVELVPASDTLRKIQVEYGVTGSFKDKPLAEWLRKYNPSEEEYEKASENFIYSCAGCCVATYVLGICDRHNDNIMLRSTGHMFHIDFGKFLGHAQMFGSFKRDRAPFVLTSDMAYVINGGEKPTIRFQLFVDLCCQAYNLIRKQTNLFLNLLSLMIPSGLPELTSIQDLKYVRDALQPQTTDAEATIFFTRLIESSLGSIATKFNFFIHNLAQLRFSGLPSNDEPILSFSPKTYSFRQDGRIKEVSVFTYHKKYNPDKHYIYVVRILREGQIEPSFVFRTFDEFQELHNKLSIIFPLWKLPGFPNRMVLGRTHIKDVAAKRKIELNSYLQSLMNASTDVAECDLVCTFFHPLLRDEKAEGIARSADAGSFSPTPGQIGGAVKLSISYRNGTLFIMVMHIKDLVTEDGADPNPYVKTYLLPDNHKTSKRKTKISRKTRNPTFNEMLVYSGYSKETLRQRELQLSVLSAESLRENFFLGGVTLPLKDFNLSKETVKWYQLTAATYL
Description: as §1

[7] = target: T7, SPHK1 (Homo sapiens, UniProt Q9NYA1)
T7 construct: purchased Thermo Fisher Scientific SelectScreen (plus Nanosyn / Reaction Biology for CDK/cyclin lines)
T7 sequence (Q9NYA1 whole entry): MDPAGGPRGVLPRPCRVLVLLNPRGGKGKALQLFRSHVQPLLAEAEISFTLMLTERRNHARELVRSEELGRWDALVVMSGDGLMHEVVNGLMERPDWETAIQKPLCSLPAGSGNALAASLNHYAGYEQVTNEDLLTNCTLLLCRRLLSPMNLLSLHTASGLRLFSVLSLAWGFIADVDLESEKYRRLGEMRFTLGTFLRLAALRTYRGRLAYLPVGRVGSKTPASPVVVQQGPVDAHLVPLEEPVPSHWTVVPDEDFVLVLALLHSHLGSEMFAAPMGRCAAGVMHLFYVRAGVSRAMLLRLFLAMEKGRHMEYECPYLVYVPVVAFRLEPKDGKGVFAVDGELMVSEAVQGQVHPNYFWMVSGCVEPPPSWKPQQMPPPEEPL
Description: as §1

[8] = target: T8, PIK3CD/PIK3R1 (p110 delta/p85 alpha) (Homo sapiens, UniProt O00329)
T8 construct: purchased Thermo Fisher Scientific SelectScreen (plus Nanosyn / Reaction Biology for CDK/cyclin lines)
Description: as §1

[9] = target: T9, PI4K2A (PI4K2 alpha) (Homo sapiens, UniProt Q9BTU6)
T9 construct: purchased Thermo Fisher Scientific SelectScreen (plus Nanosyn / Reaction Biology for CDK/cyclin lines)
Description: as §1

[10] = target: T10, CDK6/cyclin D1 (Homo sapiens, UniProt Q00534)
T10 construct: purchased Thermo Fisher Scientific SelectScreen (plus Nanosyn / Reaction Biology for CDK/cyclin lines)
Description: as §1

[11] = target: T11, CDK4/cyclin D3 (Homo sapiens, UniProt P11802)
T11 construct: purchased Thermo Fisher Scientific SelectScreen (plus Nanosyn / Reaction Biology for CDK/cyclin lines)
Description: as §1

[12] = target: T12, CAMK1 (CaMK1) (Homo sapiens, UniProt Q14012)
T12 construct: purchased Thermo Fisher Scientific SelectScreen (plus Nanosyn / Reaction Biology for CDK/cyclin lines)
T12 sequence (Q14012 whole entry): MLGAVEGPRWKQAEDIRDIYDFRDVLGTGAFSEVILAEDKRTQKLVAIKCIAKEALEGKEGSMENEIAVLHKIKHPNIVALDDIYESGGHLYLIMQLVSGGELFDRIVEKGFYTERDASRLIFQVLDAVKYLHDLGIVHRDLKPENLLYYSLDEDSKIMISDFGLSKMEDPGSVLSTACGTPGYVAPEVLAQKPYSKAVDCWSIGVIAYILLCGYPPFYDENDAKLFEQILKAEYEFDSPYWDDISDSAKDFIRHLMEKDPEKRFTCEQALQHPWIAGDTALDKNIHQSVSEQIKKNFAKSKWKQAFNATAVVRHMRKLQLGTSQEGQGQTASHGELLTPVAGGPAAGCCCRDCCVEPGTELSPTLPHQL
Description: as §1

[13] = target: T13, PI4K2B (PI4K2 beta) (Homo sapiens, UniProt Q8TCG2)
T13 construct: purchased Thermo Fisher Scientific SelectScreen (plus Nanosyn / Reaction Biology for CDK/cyclin lines)
T13 sequence (Q8TCG2 whole entry): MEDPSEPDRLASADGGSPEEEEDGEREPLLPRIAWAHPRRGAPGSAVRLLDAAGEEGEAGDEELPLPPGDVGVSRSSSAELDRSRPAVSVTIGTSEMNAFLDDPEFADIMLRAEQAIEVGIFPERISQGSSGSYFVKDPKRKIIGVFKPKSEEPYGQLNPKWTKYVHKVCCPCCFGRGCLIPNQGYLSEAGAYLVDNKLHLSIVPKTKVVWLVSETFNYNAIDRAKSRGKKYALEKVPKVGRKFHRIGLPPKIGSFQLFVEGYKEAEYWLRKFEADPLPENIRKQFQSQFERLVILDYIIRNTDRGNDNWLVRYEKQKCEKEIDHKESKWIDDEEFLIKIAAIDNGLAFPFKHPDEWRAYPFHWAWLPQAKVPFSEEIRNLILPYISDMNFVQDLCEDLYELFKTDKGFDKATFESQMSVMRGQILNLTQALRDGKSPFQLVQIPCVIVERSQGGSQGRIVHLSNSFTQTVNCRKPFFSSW
Description: as §1

[14] = target: T14, SPHK2 (Homo sapiens, UniProt Q9NRA0)
T14 construct: purchased Thermo Fisher Scientific SelectScreen (plus Nanosyn / Reaction Biology for CDK/cyclin lines)
Description: as §1

[15] = target: T15, PIP5K1C (Homo sapiens, UniProt O60331)
T15 construct: purchased Thermo Fisher Scientific SelectScreen (plus Nanosyn / Reaction Biology for CDK/cyclin lines)
T15 sequence (O60331 whole entry): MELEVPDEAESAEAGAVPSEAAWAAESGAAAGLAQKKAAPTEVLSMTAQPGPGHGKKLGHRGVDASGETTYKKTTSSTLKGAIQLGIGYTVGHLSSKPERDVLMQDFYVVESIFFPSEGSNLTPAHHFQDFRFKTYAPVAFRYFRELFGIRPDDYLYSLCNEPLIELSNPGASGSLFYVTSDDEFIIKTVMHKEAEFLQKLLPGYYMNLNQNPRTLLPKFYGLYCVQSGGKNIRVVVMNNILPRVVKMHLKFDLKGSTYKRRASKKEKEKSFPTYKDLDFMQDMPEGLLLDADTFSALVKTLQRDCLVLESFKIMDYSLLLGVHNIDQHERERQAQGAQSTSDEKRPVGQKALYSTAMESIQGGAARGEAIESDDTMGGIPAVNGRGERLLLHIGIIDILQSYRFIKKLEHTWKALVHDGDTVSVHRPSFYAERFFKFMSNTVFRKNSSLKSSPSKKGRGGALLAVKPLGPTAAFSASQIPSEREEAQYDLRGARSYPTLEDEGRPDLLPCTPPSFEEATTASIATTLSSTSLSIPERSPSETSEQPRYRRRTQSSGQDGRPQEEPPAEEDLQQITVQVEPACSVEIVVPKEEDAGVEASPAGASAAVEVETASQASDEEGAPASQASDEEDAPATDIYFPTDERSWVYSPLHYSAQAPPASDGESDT
Description: as §1

[16] = target: T16, PIP5K1B (Homo sapiens, UniProt O14986)
T16 construct: purchased Thermo Fisher Scientific SelectScreen (plus Nanosyn / Reaction Biology for CDK/cyclin lines)
T16 sequence (O14986 whole entry): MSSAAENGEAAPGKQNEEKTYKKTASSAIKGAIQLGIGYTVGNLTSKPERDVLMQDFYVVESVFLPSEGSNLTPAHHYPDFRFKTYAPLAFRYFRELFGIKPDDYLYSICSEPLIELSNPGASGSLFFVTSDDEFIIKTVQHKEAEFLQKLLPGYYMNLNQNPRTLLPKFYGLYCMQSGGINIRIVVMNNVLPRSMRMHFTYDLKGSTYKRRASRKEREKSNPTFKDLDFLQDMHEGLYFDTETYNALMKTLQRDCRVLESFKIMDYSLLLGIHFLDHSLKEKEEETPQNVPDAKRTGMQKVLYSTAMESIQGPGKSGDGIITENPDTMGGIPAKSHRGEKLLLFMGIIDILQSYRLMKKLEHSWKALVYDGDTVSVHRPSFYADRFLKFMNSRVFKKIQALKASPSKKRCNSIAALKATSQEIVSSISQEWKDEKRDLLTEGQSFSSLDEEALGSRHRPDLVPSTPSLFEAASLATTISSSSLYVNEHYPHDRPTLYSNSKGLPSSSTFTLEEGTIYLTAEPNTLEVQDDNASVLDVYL
Description: as §1

[17] = target: T17, CDK7/cyclin H/MNAT1 (Homo sapiens, UniProt P50613)
T17 construct: purchased Thermo Fisher Scientific SelectScreen (plus Nanosyn / Reaction Biology for CDK/cyclin lines)
Description: as §1

[18] = target: T18, NUAK1 (ARK5) (Homo sapiens, UniProt O60285)
T18 construct: purchased Thermo Fisher Scientific SelectScreen (plus Nanosyn / Reaction Biology for CDK/cyclin lines)
Description: as §1

[19] = target: T19, IRAK1 (Homo sapiens, UniProt P51617)
T19 construct: purchased Thermo Fisher Scientific SelectScreen (plus Nanosyn / Reaction Biology for CDK/cyclin lines)
Description: as §1

[20] = target: T20, PIK3CA/PIK3R3 (p110 alpha/p55 gamma) (Homo sapiens, UniProt P42336)
T20 construct: purchased Thermo Fisher Scientific SelectScreen (plus Nanosyn / Reaction Biology for CDK/cyclin lines)
Description: as §1

[21] = target: T21, PIK3CG (p110 gamma) (Homo sapiens, UniProt P48736)
T21 construct: purchased Thermo Fisher Scientific SelectScreen (plus Nanosyn / Reaction Biology for CDK/cyclin lines)
Description: as §1

[22] = target: T22, LRRK2 G2019S (Homo sapiens, UniProt Q5S007, G2019S)
T22 construct: purchased Thermo Fisher Scientific SelectScreen (plus Nanosyn / Reaction Biology for CDK/cyclin lines)
Description: as §1

[23] = target: T23, PIK3CB/PIK3R2 (p110 beta/p85 beta) (Homo sapiens, UniProt P42338)
T23 construct: purchased Thermo Fisher Scientific SelectScreen (plus Nanosyn / Reaction Biology for CDK/cyclin lines)
Description: as §1

[24] = target: T24, LRRK2 FL (Homo sapiens, UniProt Q5S007)
T24 construct: purchased Thermo Fisher Scientific SelectScreen (plus Nanosyn / Reaction Biology for CDK/cyclin lines)
Description: as §1

[25] = target: T25, PIK3CA E542K/PIK3R1 (p110 alpha E542K/p85 alpha) (Homo sapiens, UniProt P42336, E542K)
T25 construct: purchased Thermo Fisher Scientific SelectScreen (plus Nanosyn / Reaction Biology for CDK/cyclin lines)
Description: as §1

[26] = target: T26, CHUK (IKK alpha) (Homo sapiens, UniProt O15111)
T26 construct: purchased Thermo Fisher Scientific SelectScreen (plus Nanosyn / Reaction Biology for CDK/cyclin lines)
Description: as §1

[27] = target: T27, LRRK2 (Homo sapiens, UniProt Q5S007)
T27 construct: purchased Thermo Fisher Scientific SelectScreen (plus Nanosyn / Reaction Biology for CDK/cyclin lines)
Description: as §1

[28] = target: T28, PIP5K1A (Homo sapiens, UniProt Q99755)
T28 construct: purchased Thermo Fisher Scientific SelectScreen (plus Nanosyn / Reaction Biology for CDK/cyclin lines)
Description: as §1

[29] = target: T29, CDK9/cyclin T1 (Homo sapiens, UniProt P50750)
T29 construct: purchased Carna 04-110
Description: as §1

[30] = target: T30, PI4KA (PI4K alpha) (Homo sapiens, UniProt P42356)
T30 construct: purchased Thermo Fisher Scientific SelectScreen (plus Nanosyn / Reaction Biology for CDK/cyclin lines)
Description: as §1

NS(=O)(=O)c1ccc(Nc2ncc3cc4n(c3n2)C2(CCCCC2)C(=O)NN4)cc1 [INX-315]
inhibition at 0.1 µM [1]: -8% | inhibition at 0.1 µM [2]: 7% | inhibition at 0.1 µM [3]: 11% | inhibition at 0.1 µM [4]: 40% | inhibition at 0.1 µM [5]: 7% | inhibition at 0.1 µM [6]: -1% | inhibition at 0.1 µM [7]: -15% | inhibition at 0.1 µM [8]: -10% | inhibition at 0.1 µM [9]: 0% | inhibition at 0.1 µM [10]: 15% | inhibition at 0.1 µM [11]: 22% | inhibition at 0.1 µM [12]: -17% | inhibition at 0.1 µM [13]: -2% | inhibition at 0.1 µM [14]: -19% | inhibition at 0.1 µM [15]: 4% | inhibition at 0.1 µM [16]: 38% | inhibition at 0.1 µM [17]: -3% | inhibition at 0.1 µM [18]: 68% | inhibition at 0.1 µM [19]: 6% | inhibition at 0.1 µM [20]: -2% | inhibition at 0.1 µM [21]: -8% | inhibition at 0.1 µM [22]: 34% | inhibition at 0.1 µM [23]: -14% | inhibition at 0.1 µM [24]: 37% | inhibition at 0.1 µM [25]: -1% | inhibition at 0.1 µM [26]: -7% | inhibition at 0.1 µM [27]: 29% | inhibition at 0.1 µM [28]: 6% | inhibition at 0.1 µM [29]: 52% | inhibition at 0.1 µM [30]: -11%
